This is an account of results in PMC7923178, “Binding of Amyloid β(1–42)-Calmodulin Complexes to Plasma Membrane Lipid Rafts in Cerebellar Granule Neurons Alters Resting Cytosolic Calcium Homeostasis” (International Journal of Molecular Sciences, 2021).

The subject of series [1] is L-type calcium channels (LTCCs). Put plainly: LTCC contribution to resting cytosolic calcium (nifedipine-sensitive Fura-2 ratio).
Series [2] deals with calmodulin (CaM). Briefly: Co-immunoprecipitation of CaM with anti-Aβ antibody in CGN lysates. The class given is binding, rat. The following applies: CGN lysates treated with 10 mM methyl-β-cyclodextrin 30 min, western blot. (A western blot detects proteins with antibodies after separation by electrophoresis.)
For series [3], the system named is calmodulin (CaM). Put plainly: Aβ(1–42) binding capacity of CaM in CGN, from western blot quantification of CaM. More on the design: species or system rat. The settings on record: per Petri plate with […] 10^6 CGN cells (56 ± 6 picomoles CaM per plate); Aβ(1–42) largely dimers.
Series [4] deals with mature CGN. Put plainly: Resting cytosolic calcium, Fura-2 ratio (340/380) imaging. Format: cell-based, rat. The following applies: 2 μM, 2–5 h incubation; MLocke's K25 medium; control 160 ± 30 nM.
The target in series [5] is purified calmodulin (CaM). The following applies: previous work, read-out: dissociation constant of the complex with purified CaM; cited from earlier work. The text has this:
Lipid rafts are a primary target in studies of amyloid β (Aβ) cytotoxicity in neurons. Exogenous Aβ peptides bind to lipid rafts, which in turn play a key role in Aβ uptake, leading to the formation of neurotoxic intracellular Aβ aggregates. On the other hand, dysregulation of intracellular calcium homeostasis in neurons has been observed in Alzheimer’s disease (AD). […] In this work, to experim ... || Dysregulation of intracellular calcium homeostasis in neurons is a common metabolic feature in both sporadic and familial forms of AD, which by itself can account for enhanced intraneuronal Aβ production and tau hyperphosphorylation potentiation. […] The ... || (+ 1 further places)

Series [6] relates to neurons. The settings on record: small oligomeric states of the peptide; cited from earlier work.
Series [7] has as its system mature CGN. Briefly: Internalization of Aβ(1–42) in mature CGN by fluorescence microscopy. The settings on record: 2 h incubation with 2 µM Aβ in extracellular medium (1.8 μM Aβ(1–42) plus 0.2 μM HiLyte-Fluor555 derivative), 37 °C, 5% CO2, assuming equal internalization rate, 102 cells.

Take `COC(=O)C1=C(C)NC(C)=C(C(=O)OC)C1c1ccccc1[N+](=O)[O-]` [nifedipine, Nifedipine]: the “difference between the ratio 340/380 in the absence and presence of nifedipine” value in series [1] (CGN non-treated with amyloid β(1–42), nifedipine 2 μM or 10 µM) was found to be 0.64. Also, the “blockade of Ca2+ entry in the soma” value in series [1] (nifedipine 10 µM, untreated and Aβ-treated cells) is on record as “totally blocks”.

As for “Aβ(1–42): Unlabeled amyloid β(1–42) peptide synthesized and supplied by StabVida”, the “co-immunoprecipitation of CaM with anti-Aβ(1–42) antibody” value in series [2] was “co-immunoprecipitation of CaM with the anti-Aβ(1–42) antibody”. Further, in series [3], the “Aβ(1–42) that can be bound by CaM in CGN” value was “up to 120 ± 13 picomoles of Aβ(1–42) /2.5 × 10^6 cells”. The “[Ca^2+]i” value in series [4] came to 71 ± 7 nM. In addition, in series [5], the Kd is ~1 nM. The “half-time of internalization in neurons” value in series [6] was 12 to 14 h. In addition, in series [7], the “intracellular (internalized) concentration of Aβ monomers” value is 193 ± 21 nM. In series [1] (2 µM (monomers) in medium, 2 h incubation of mature CGN), the “inhibition of LTCC activity” value is listed as “about 50%”. Also, the IC50 in series [1] (read-out: concentration of internalized Aβ(1–42) dimers that inhibited by 50% the LTCC's activity, internalized dimers after 2 h with 2 µM monomers) is < 100 nM.

As for “Aβ(25–35): amyloid β peptide fragment 25–35, cited from previous work (GSNKGAIIGLM; Amyloid-beta protein 42; UniProt P05067 696-706, looked up, fragment)”, the Kd in series [5] is ~1 nM.
